Results published in US20250177408A1, “INHIBITOR OF INTERACTION BETWEEN YAP/TAZ AND TEAD, PREPARATION THEREOF, PHARMACEUTICAL COMPOSITION THEREOF AND USE THEREOF” (ETERN BIOPHARMA (SHANGHAI) CO., LTD., priority 2022, published 2025).
Counter-ions that a name gives are not always drawn. Like-named read-outs stand apart in the source and are kept apart here.

Legend:
[1] = molecular target: YAP-TEAD protein interaction (His-TEAD1 (209-426) protein, Bio-YAP peptide (60-100)) (Homo sapiens, UniProt P28347); experiment: YAP-TEAD protein interaction HTRF experiment; format: binding; conditions: His-TEAD1 (209-426) 10 nM, Bio-YAP peptide 50 nM, read-out: Activity of each compound in blocking YAP-TEAD protein interaction (grades of IC50 values)
YAP-TEAD protein interaction (His-TEAD1 (209-426) protein, Bio-YAP peptide (60-100)), sequence (P28347 209-426): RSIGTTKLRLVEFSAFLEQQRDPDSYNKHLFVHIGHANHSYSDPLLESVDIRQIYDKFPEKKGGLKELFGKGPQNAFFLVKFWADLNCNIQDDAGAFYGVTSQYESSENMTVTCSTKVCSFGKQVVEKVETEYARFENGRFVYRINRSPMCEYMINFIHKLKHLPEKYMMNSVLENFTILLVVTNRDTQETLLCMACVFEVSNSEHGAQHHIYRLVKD
Summary of the method: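 His-TEAD1 (209-426) at 10 nM final was preincubated 20 min at RT with compounds (10-point 3-fold dilutions, duplicates, 1% DMSO), then Bio-YAP peptide, 10 min. Anti-His-Eu cryptate/streptavidin-XL665 added for 1 h at RT; HTRF read at ex 320 nm, Em665/Em620 ratio ×10000, IC50 from % inhibition.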

MSTO-211H cells = experiment: Cell proliferation inhibition experiment (CellTiter-Glo); format: cell-based; conditions: 96 hours, read-out: Inhibitory activity of each compound on the proliferation of MSTO-211H cells (grades of IC50 values)
Description: In this example, the intracellular ATP was quantitatively determined by the CellTiter-Glo luminescence cell viability detection kit to detect the number of living cells in the culture.
Step 1: MSTO-211H (ATCC, CRL-2081TM) or NCI-H2052 (ATCC, CRL-5915TM) cells were inoculated in a 96-well plate at a density of 1500 cells per well with a volume of 100 μL per well, and the cells were incubated overnight in a 37° C., 5% carbon dioxide incubator. The culture medium used was RPMI1640 medium (GIBCO-A10491-01)+10% FBS (GIBCO-10099141C)+1% penicillin/streptomycin (Pen/Strep) (GIBCO-15070-063).
Step 2: The cells were treated with the compounds to be tested. The compounds to be tested were 3-fold diluted, and a total of 9 concentration gradients were set up; a certain volume of DMSO or the compounds to be tested was added to each well, respectively, and 2 replicates were set up for each concentration, and the final concentration of DMSO was controlled to be no higher than 0.5%. The cells were incubated for 96 hours in a 37° C., 5% carbon dioxide incubator.
Step 3: Cell viability was detected in the control group and treatment group using CellTiter-Glo Luminescent Cell Viability Assay kit (Promega, G7570). 50 μL of CellTiter-Glo was added to each well, mixed well, and incubated at room temperature for 10 minutes. The signal was read using En Vision® Multilabel Plate Reader (Perkin Elmer).
The inhibition percentage (%) was calculated using the following formula: […]
Using Graphpad Prism software, the IC50 values of the compounds inhibiting the CTG signal of cell proliferation activity was calculated.

## Cn1cc2c(n1)COc1c-2cc(C(N)=O)c(-c2c(Cl)c(F)cc3c2C[C@@](CN[C@H]2CC[C@H](C(N)=O)CC2)(c2ccccc2)O3)c1F (atropisomer, axis not shown) [Compound 79]
[1]
  IC50: < 0.05 µM
MSTO-211H cells; Homo sapiens
  IC50: 0.2 to 0.5 µM

## NC(=O)c1cc2c(c(F)c1-c1c(Cl)c(F)cc3c1C[C@](c1ccccc1)([C@@H]1CCCN1)O3)OCC21CCNCC1 (atropisomer, axis not shown) [Compound 44, (S)-6-((S)-5-Chloro-6-fluoro-2-phenyl-2-((S)-pyrrolidin-2-yl)-2,3-dihydrobenzofuran-4-yl)-7-fluoro-2H-spiro [benzofuran-3,4′-piperidine]-5-carboxamide]
[1]
  IC50: 0.05 to 0.5 µM
MSTO-211H cells; Homo sapiens
  IC50: > 5 µM

## NC(=O)c1cc2c(c(F)c1-c1c(Cl)c(F)cc3c1C[C@](c1ccccc1)([C@@H]1CCCN1)O3)Oc1ncn(C3CC3)c(=O)c1O2 (atropisomer, axis not shown) [Compound 140]
[1]
  IC50: < 0.05 µM
MSTO-211H cells; Homo sapiens
  IC50: < 0.2 µM

## NC(=O)c1cc2c(c(F)c1-c1c(Cl)c(F)cc3c1C[C@](c1ccccc1)([C@@H]1CCCN1)O3)Oc1nnccc1O2 [Compound 71, (S)-8-((S)-5-Chloro-6-fluoro-2-phenyl-2-((S)-pyrrolidin-2-yl)-2,3-dihydrobenzofuran-4-yl)-9-fluorobenzo[5,6][1,4]dioxo[2,3-c]pyridazine-7-carboxamide]
[1]
  IC50: < 0.05 µM
MSTO-211H cells
  IC50: 0.2 to 0.5 µM

## Cn1nc2c(cc1=O)Oc1c(cc(C(N)=O)c(-c3c(Cl)c(F)cc4c3C[C@](c3ccccc3)([C@@H]3CCCN3)O4)c1F)O2 (atropisomer, axis not shown) [Compound 123, (S)-7-((S)-5-Chloro-6-fluoro-2-phenyl-2-((S)-pyrrolidin-2-yl)-2,3-dihydrobenzofuran-4-yl)-6-fluoro-1-methyl-3-oxo-2,3-trihydrobenzo [5,6][1,4]dioxo [2,3-c]pyridazine-8-carboxamide]
[1]
  IC50: < 0.05 µM
MSTO-211H cells; Homo sapiens
  IC50: 0.2 to 0.5 µM

## [2H]C([2H])([2H])n1ncc2c(c1=O)Oc1c(cc(C(N)=O)c(-c3c(Cl)c(F)cc4c3C[C@](c3ccccc3)([C@@H]3CCCN3)O4)c1F)O2 (atropisomer, axis not shown) [Compound 131, (S)-8-((S)-5-Chloro-6-fluoro-2-phenyl-2-((S)-pyrrolidin-2-yl)-2,3-dihydrobenzofuran-4-yl)-9-fluoro-2-(methyl-d3)-1-oxo-1,2-dihydrobenzo[5,6][1,4]dioxo[2,3-d]pyridazine-7-carboxamide]
[1]
  IC50: < 0.05 µM
MSTO-211H cells; Homo sapiens
  IC50: < 0.2 µM

## NC(=O)c1cc2c(c(F)c1-c1c(Cl)c(F)cc3c1C[C@](c1ccccc1)([C@@H]1CCCN1)O3)Oc1cnn(C3CC3)c(=O)c1O2 [Compound 112, (S)-8-((S)-5-Chloro-6-fluoro-2-phenyl-2-((S)-pyrrolidin-2-yl)-2,3-dihydrobenzofuran-4-yl)-3-cyclopropyl-9-fluoro-4-oxo-3,4-dihydrobenzo[5,6][1,4]dioxo[2,3-d]pyridazine-7-carboxamide]
[1]
  IC50: < 0.05 µM
MSTO-211H cells
  IC50: 0.2 to 0.5 µM

## [2H]C([2H])([2H])n1ncc2c(c1=O)Oc1c(cc(C(=O)NC)c(-c3c(Cl)c(F)cc4c3C[C@](c3ccccc3)([C@@H]3CCCN3)O4)c1F)O2 (atropisomer, axis not shown) [Compound 151, (S)-8-((S)-5-Chloro-6-fluoro-2-phenyl-2-((S)-pyrrolidin-2-yl)-2,3-dihydrobenzofuran-4-yl)-9-fluoro-N-methyl-2-(methyl-d3)-1-oxo-1,2-dihydrobenzo[5,6][1,4]dioxo [2,3-d]pyridazine-7-carboxamide]
[1]
  IC50: < 0.05 µM
MSTO-211H cells; Homo sapiens
  IC50: < 0.2 µM

## Cn1cnc2c(c1=O)Oc1c(cc(C(N)=O)c(-c3c(Cl)c(F)cc4c3CC(c3ccccc3)(C3CCCN3)O4)c1F)O2 [Compound 126, (S)-7-((S)-5-Chloro-6-fluoro-2-phenyl-2-((S)-pyrrolidin-2-yl)-2,3-dihydrobenzofuran-4-yl)-6-fluoro-3-methyl-4-oxo-3,4,7,8-tetrahydrobenzo[5,6][1,4]dioxo[2,3-d]pyrimidine-8-carboxamide]
[1]
  IC50: < 0.05 µM
MSTO-211H cells; Homo sapiens
  IC50: < 0.2 µM

## NC(=O)c1cc2c(c(F)c1-c1c(Cl)c(F)cc3c1C[C@](c1ccccc1)([C@@H]1CCCN1)O3)OCc1nncn1-2 (atropisomer, axis not shown) [Compound 42, (S)-7-((S)-5-Chloro-6-fluoro-2-phenyl-2-((S)-pyrrolidin-2-yl)-2,3-dihydrobenzofuran-4-yl)-6-fluoro-4H-benzo[b][1,2,4]triazolo[4,3-d][1,4]oxazine-8-carboxamide]
[1]
  IC50: < 0.05 µM
MSTO-211H cells; Homo sapiens
  IC50: 0.5 to 5 µM

## [2H]C1([2H])CC[C@]([2H])([C@@]2(c3ccccc3)Cc3c(cc(F)c(Cl)c3-c3c(C(=O)NC)cc4c(c3F)Oc3c(cnn(CC(F)(F)F)c3=O)O4)O2)N1 (atropisomer, axis not shown) [Compound 157, (S)-8-((S)-5-Chloro-6-fluoro-2-phenyl-2-((S)-pyrrolidin-2-yl-2,5,5-d3)-2,3-dihydrobenzofuran-4-yl)-9-fluoro-N-methyl-1-oxo-2-(2,2,2-trifluoroethyl)-1,2-dihydroxybenzo[5,6][1,4] dioxo[2,3-d]pyridazine-7-carboxamide]
[1]
  IC50: < 0.05 µM
MSTO-211H cells; Homo sapiens
  IC50: < 0.2 µM

## NC(=O)c1cc2c(c(F)c1-c1c(Cl)c(F)cc3c1C[C@](c1ccccc1)([C@@H]1CCCN1)O3)Oc1c(cnn(CCF)c1=O)O2 (atropisomer, axis not shown) [Compound 118, (S)-8-((S)-5-Chloro-6-fluoro-2-phenyl-2-((S)-pyrrolidin-2-yl)-2,3-dihydrobenzofuran-4-yl)-9-fluoro-2-(2-fluoroethyl)-1-oxo-1,2-dihydrobenzo[5,6][1,4]dioxo[2,3-d]pyridazine-7-carboxamide]
[1]
  IC50: < 0.05 µM
MSTO-211H cells; Homo sapiens
  IC50: < 0.2 µM

## NC(=O)c1cc2c(c(F)c1-c1c(Cl)c(F)cc3c1C[C@](c1ccccc1)([C@@H]1CCCN1)O3)Oc1c(cn[nH]c1=O)O2 (atropisomer, axis not shown) [Compound 107, (S)-8-((S)-5-Chloro-6-fluoro-2-phenyl-2-((S)-pyrrolidin-2-yl)-2,3-dihydrobenzofuran-4-yl)-9-fluoro-1-oxo-1,2-dihydrobenzo[5,6][1,4]dioxo [2,3-d]pyridazine-7-carboxamide]
[1]
  IC50: < 0.05 µM
MSTO-211H cells; Homo sapiens
  IC50: < 0.2 µM

## Cn1ncc2c(c1=O)Oc1cc(C(N)=O)c(-c3c(Cl)c(F)cc4c3CC(c3ccccc3)(C3CCCN3)O4)c(F)c1O2 [Compound 106, (S)-8-((S)-5-Chloro-6-fluoro-2-phenyl-2-((S)-pyrrolidin-2-yl)-2,3-dihydrobenzofuran-4-yl)-9-fluoro-3-methyl-4-oxo-3,4-dihydrobenzo[5,6][1,4]dioxo[2,3-d]pyridazine-7-carboxamide]
[1]
  IC50: < 0.05 µM
MSTO-211H cells; Homo sapiens
  IC50: 0.2 to 0.5 µM

## Cn1cc2c(n1)COc1c-2cc(C(N)=O)c(-c2c(Cl)c(F)cc3c2C[C@](c2ccccc2)([C@@H]2CC4(CC4)CN2)O3)c1F (atropisomer, axis not shown) [Compound 9, (S)-7-((S)-5-Chloro-6-fluoro-2-phenyl-2-((S)-5-azaspiro[2.4]heptan-6-yl)-2,3-dihydrobenzofuran-4-yl)-6-fluoro-2-methyl-2,4-dihydrochromeno[3,4-c]pyrazole-8-carboxamide hydrochloride]
[1]
  IC50: < 0.05 µM
MSTO-211H cells; Homo sapiens
  IC50: < 0.2 µM

## CCn1ncc2c(c1=O)Oc1c(cc(C(N)=O)c(-c3c(Cl)c(F)cc4c3C[C@](c3ccccc3)([C@@H]3CCCN3)O4)c1F)O2 (atropisomer, axis not shown) [Compound 109, (S)-8-((S)-5-Chloro-6-fluoro-2-phenyl-2-((S)-pyrrolidin-2-yl)-2,3-dihydrobenzofuran-4-yl)-2-ethyl-9-fluoro-1-oxo-1,2-dihydrobenzo[5,6][1,4]dioxo [2,3-d]pyridazine-7-carboxamide]
[1]
  IC50: < 0.05 µM
MSTO-211H cells; Homo sapiens
  IC50: < 0.2 µM

## CNC(=O)c1cc2c(c(F)c1-c1c(Cl)c(F)cc3c1C[C@](c1ccccc1)([C@@H]1CCCN1)O3)Oc1c(cnn(CC(F)(F)F)c1=O)O2 (atropisomer, axis not shown) [Compound 144]
[1]
  IC50: < 0.05 µM
MSTO-211H cells; Homo sapiens
  IC50: < 0.2 µM

## CNC[C@@]1(c2ccccc2)Cc2c(cc(F)c(Cl)c2-c2c(C(N)=O)cc3c(c2F)OCCN3)O1 (atropisomer, axis not shown) [Compound I-17, (S)-7-((S)-5-Chloro-6-fluoro-2-((methylamino)methyl)-2-phenyl-2,3-dihydrobenzofuran-4-yl)-8-fluoro-3,4-dihydro-2H-benzo[b][1,4]oxazine-6-carboxamide]
[1]
  IC50: < 0.05 µM
MSTO-211H cells; Homo sapiens
  IC50: < 0.2 µM
